Test results reported in patent US12139534B2, “Methods and compositions for decreasing soluble immune receptor CD28” (BIOND BIOLOGICS LTD., priority 2018, dated 2024).

Key:
[1] = system: autologous monocytes and CD3 T cells; assay: Autologous monocytes CD3 MLR with CMV peptide, cytokine secretion; assay type: cell-based, human
Procedure: Autologous monocytes CD3 MLR—0.5×10^6 T cells were mixed with 0.5×10^5 monocytes from same CMV reactive donor and stimulated with 0.5 μg/mL CMV peptivator for 6 days at 37° C. with/without the indicated concentration of treatments.
The mixed cells were stimulated for 5 days with CMV peptide (0.5 μg/mL) with and without increasing concentrations of recombinant human sCD28.
The MLR was run as before only with and without sCD28 and with and without an anti-PD1 antibody (MK3475, 5 μg/mL) (FIG. 9B).

human PBMCs [2] = assay: SEB or CMV stimulated PBMCs with anti-PD1 and/or soluble CD28, cytokine secretion; assay type: cell-based
human PBMCs [3] = assay: Soluble CD28 generation by SEB or CMV stimulated PBMCs, human CD28 ELISA; assay type: cell-based; conditions: stimulated cells with protease inhibitors; sandwich ELISA
Procedure: ELISA—Commercial ELISA kits were used for quantitation of the amount of human interferon-gamma (Biolegend, Cat. No. 430103), human interleukin 2 (Biolegend, Cat. No. 431802), human interleukin 6 (Biolegend, Cat. No. 430502), human interleukin 10 (Biolegend, Cat. No. 430603), human […] beta 1 (Biolegend, Cat. No. 436708), human interleukin beta 1 (Biolegend, Cat. No. 437004) and human CD28 (R&D system, Cat. No. DY342). Cell Proliferation and viability (MTT assay) was conducted according to manufacturer instructions (Roche, cat #11465007001). Kynurenine (IDO activity) ELISA kit was conducted according to manufacturer instructions (ImmuSmo Cat #BA E-2200).
Protease Inhibitors—Protease inhibitors were added at the indicated concentrations at the start of each experiment. In week long assays another portion of the inhibitors was added after 3 days at the final concentration. […] Where mentioned the protease cocktail was composed with a mixture of TAPI-1 and GM6001 at equimolar ratio.
SEB or CMV activation of PBMCs for the generation of soluble CD28—0.3×10^6 PBMCs were stimulated with 0.5 ng/mL SEB (Sigma, Cat. No. S4881) for 5-7 days at 37° C. with/without the indicated concentration of various protease inhibitors in 48 well plate. Alternatively, 0.1×10^6 PBMCs were stimulated with 0.5 ng/mL SEB in 96 well plate format assay. For CMV stimulation 0.5×10^6 PBMCs were stimulated with 0.5 μg/mL CMV peptivator (Milteny Biotec, Cat. No. 130-093-435) for 2-5 days at 37° C. with/without the indicated concentration of various protease inhibitors in a 96 well plate. For continuous shedding experiments PBMC were stimulated with SEB or CMV in 24 well plate for 24 hr, cells were taken and washed three times with RPMI without stimulant and plated again in a 96 well plate. Samples were taken at indicated times and put under freezing conditions until examination for soluble CD28.

human PBMCs [4] = assay: Viability of SEB stimulated PBMCs with ADAM inhibitors (MTT assay); assay type: cell-based; conditions: SEB 1 ng/mL, inhibitor 0.01-1 μM, with vs without inhibitor
SCC-25 cells = assay: SCC-25 cancer cell line trans-well co-culture with monocytes, proliferation; assay type: cell-based, human
Procedure: Co-culture of SCC-25 cancer cell line with monocytes in trans-well based assay—4×10^4 SCC-25 cells were plated on the bottom of 24 well plate with 1×10^5 monocytes placed on cell culture insert (Millipore, Cat. No. MCHT241148) with or without indicated treatments for 4 days in starvation media without serum.
Next, cells of the head and neck cancer cell line SCC-25 were incubated either alone or with monocytes in a trans-well assay. SCC-25 cells grown alone were administered IL-6 as a positive control, and indeed cell proliferation, as measured by MTT (FIG. 10D, upper) and as measured by % confluency (FIG. 10D, lower), was increased.

human PBMCs [5] = assay: Lymphocyte clustering of SEB stimulated PBMCs (IncuCyte); assay type: cell-based; conditions: SEB 1 ng/mL; human IgG control
Procedure: Next, human PBMCs were stimulated with SEB (1 ng/mL) without or in the presence of recombinant human CD28. Human IgG was used as control. Lymphocyte clustering, a hallmark of immune activation was monitored using the IncuCyte® S3 Live-Cell, with pictures taken every 12 hours. […] It is well established that during in-vitro immune response antigen presenting cells (APC) cluster with one another and with other cell types, and clustering is essential for the antigen specific activation of resting lymphocytes.

human PBMCs [6] = assay: CMV stimulation of PBMCs with ectopic recombinant human CD28, CTLA-4, CD80; cytokine ELISA/multiplex; assay type: cell-based
[7] = system: isolated CD3 human T cells; assay: CD3 T cells stimulation with anti-CD3 OKT3, IFN gamma secretion; assay type: cell-based; conditions: OKT3 2 μg/mL, CD80-Fc 2 μg/mL, sCD28 titration
Procedure: T cells stimulation with OKT3—0.1×10^6 isolated CD3 T cells (from healthy donors) were stimulated with indicated amount of anti-CD3 clone OKT3 for 48-72 hr at 37° C. When stated recombinant human CD80-Fc (2 μg/mL, R&D system) was added in soluble form. Antibodies to CD28 or controls were added at the indicated concentration in soluble form.
CD80 is one of the two main ligands for mCD28 along with CD86. The extracellular domain of CD80 fused to an Fc moiety has been used as an immune stimulatory molecule and is under investigation as a cancer therapy. In order to examine the effect of sCD28 on CD80-Fc efficacy, isolated CD3 human T cells were stimulated with plate bound anti-CD3 antibody (OKT3, 2 μg/mL) in the presence of 2 μg/mL soluble recombinant human CD80-Fc.

human monocytes = assay: Stimulation of monocytes with recombinant human CD28 (IDO, PD-L1, PD-L2); assay type: cell-based; conditions: recombinant human CD28 10 μg/mL
Procedure: Flow Cytometry—Generally, cells were kept on ice during all steps. Prior to staining, 5×10^5 cells were blocked with 50 μg/mL human IgG (Sigma, Cat. No. 14506) in FACS buffer (PBS with 0.1% BSA) for 15 min. Antibodies were used at concentrations recommended by the manufacturer and incubated for 30 min. in the dark. Incubations were done in a volume of 100 μL in 96-well U bottom plates. Cells were washed twice with 200 μL of FACS buffer and transferred to FACS tubes in 150 μL of FACS buffer for analysis. Cells were analyzed on a Gallios Flow Cytometer (Beckman Coulter) using the Kaluza for Gallios Flow Cytometry Acquisition Software.
Stimulation of monocytes with recombinant human CD28—1.5×10^6 monocytes were plated at 24 well plate in RPMI medium with […] IFN gamma (R&D system, Cat. No. 285-IF) in the presence of recombinant human CD28 at the indicated concentrations for 48 hrs. The generated cell populations were tested for the indicated phenotypes by FACS analysis of relevant markers (IDO, PD-L1 and PD-L2) and by analysis of secretion of characteristic cytokines (IL-6).
The enzyme indoleamine 2,3-dioxygenase (IDO) has been implicated in immune modulation through its ability to catabolize the essential amino acid Tryptophan. It is expressed by different immune cells and also by many cancer cells. Tryptophan shortage inhibits T lymphocytes maturation and proliferation, while Kynurenine, the end product of tryptophan catabolism, is also known as immunosuppressive metabolite that promotes immune tolerance in various physiological and pathophysiological conditions. To test the effect of sCD28 on IDO, isolated human monocytes were stimulated for 48 hr with IFNγ (1000 U/mL) in the presence of control human IgG or with recombinant human CD28 (10 μg/mL). After incubation, the monocytes were stained intracellularly for human IDO (FIG. 8E). To facilitate intracellular staining the cells were fixed and permeabilized with BD Cytofix/Cytoperm Buffer Kit. […]

[8] = system: H22 hepatocellular carcinoma cells; assay: H22 syngeneic mouse model, tumor growth; assay type: in vivo; conditions: Balb/c mice, H22 allograft, with anti-PD-1 therapy
From the text: The closest option is to administer recombinant sCD28 to mice to mimic a situation of elevated sCD28 levels. This was investigated in a H22 syngeneic mouse model. Balb/c fully immunocompetent mice received an allograft of H22 hepatocellular carcinoma cells.

[9] = system: PBMCs isolated from cancer patients; assay: SEB stimulated PBMCs of cancer patients, IFN gamma secretion; assay type: cell-based, human; conditions: SEB 5 ng/mL, 3 days

MK-3475: Anti-Human PD-1 pembrolizumab [reference compound]
IFN gamma secretion ([1]; CMV peptide 0.5 μg/mL): increased IFN gamma secretion | TGF beta secretion ([1]; CMV peptide 0.5 μg/mL): decreased TGF beta secretion | proinflammatory cytokine secretion (IFN gamma and IL-2) (human PBMCs [2]; PBMC culture, SEB or CMV, 3 days, MK3475 5 μg/mL): increased proinflammatory cytokine secretion

CC#CCOc1ccc(S(=O)(=O)N2CCSC(C)(C)[C@@H]2C(=O)NO)cc1 [TMI-1]
sCD28 levels detected with antibodies of the invention (human PBMCs [3]): Lower levels of sCD28 | viability of the immune cells (MTT) (human PBMCs [4]): no significant difference

IL-6: interleukin-6 administered as a positive control
cell proliferation (MTT, % confluency) (SCC-25 cells; SCC-25 cells grown alone): increased

sCD28: recombinant human CD28 lacking the transmembrane and cytoplasmic domains
lymphocyte cluster formation (human PBMCs [5]): diminish the amount and size of cluster formation | IFN gamma secretion (human PBMCs [6]; CMV 0.5 μg/mL): dose-dependent inhibition of IFN gamma secretion | IL-6 secretion (human PBMCs [6]; CMV 0.5 μg/mL): increase IL-6 cytokine secretion | interleukin-10 secretion (human PBMCs [6]; CMV 0.5 μg/mL): elevation | CD80-Fc amount needed for immune response (human PBMCs [6]; CMV peptide 3 days, constant sCD28, CD80-Fc titration): an increased amount of CD80-Fc was required | IFN gamma secretion ([1]; CMV peptide 0.5 μg/mL): inhibit IFN gamma secretion | TGF beta secretion ([1]; CMV peptide 0.5 μg/mL): increasing the secretion | IL-1B secretion ([1]; CMV peptide 0.5 μg/mL, 5 days): increasing the secretion | IL-10 secretion ([1]; CMV peptide 0.5 μg/mL, 5 days): increasing the secretion | effect of MK-3475 in the presence of sCD28 ([1]; MK3475 5 μg/mL): significantly reduced | effect on CD80-Fc activation (IFN gamma secretion) [7]: counteracted the secondary activation effect of the CD80-Fc | cell proliferation (MTT, % confluency) (SCC-25 cells; SCC-25 coculture with monocytes): by far the greatest increase | PD-L1 expression on monocytes (human monocytes; IFNγ 1000 U/mL 48 hours): upregulated | PD-L2 expression on monocytes (human monocytes; IFNγ 1000 U/mL 48 hours): upregulated | IDO expression in monocytes (human monocytes; IFNγ 1000 U/mL 48 hr): strongly enhanced IDO expression | effect on anti-PD-1 therapy (tumor growth) [8]: nearly completely abrogated in two of the mice | effect on immune activation by MK-3475 (human PBMCs [2]; sCD28 2 and 10 μg/mL with MK3475 5 μg/mL): abrogated completely this immune activation effect | effect on MK-3475 activity [9]: rendered the effect of MK-3475 nonexistent | concentration of human IFN gamma in the supernatant ([9]; with or without MK-3475): greatly reduced
